Source: patent US12122761B2, “2-azaspiro[3.4]octane derivatives as M4 agonists” (NOVARTIS AG, priority 2019, dated 2024)

How the values were obtained:
[1] = molecular target: T1, human cloned CHRM2 receptor (M2_CHO cells) (Homo sapiens, UniProt P08172); assay: CHRM2 Ca++ Flux Assay (agonist mode, FDSS 7000EX); format: cell-based; details: for Emax: Percent Activity measured to EC100 of Carbachol, read-out: M2 FDSS PA; for EC50: agonist mode, geometric mean if tested more than once, read-out: M2 FDSS EC50
T1 construct: expressed in transfected cells; host or cells: CHO-K1
T1 sequence (P08172 1-466): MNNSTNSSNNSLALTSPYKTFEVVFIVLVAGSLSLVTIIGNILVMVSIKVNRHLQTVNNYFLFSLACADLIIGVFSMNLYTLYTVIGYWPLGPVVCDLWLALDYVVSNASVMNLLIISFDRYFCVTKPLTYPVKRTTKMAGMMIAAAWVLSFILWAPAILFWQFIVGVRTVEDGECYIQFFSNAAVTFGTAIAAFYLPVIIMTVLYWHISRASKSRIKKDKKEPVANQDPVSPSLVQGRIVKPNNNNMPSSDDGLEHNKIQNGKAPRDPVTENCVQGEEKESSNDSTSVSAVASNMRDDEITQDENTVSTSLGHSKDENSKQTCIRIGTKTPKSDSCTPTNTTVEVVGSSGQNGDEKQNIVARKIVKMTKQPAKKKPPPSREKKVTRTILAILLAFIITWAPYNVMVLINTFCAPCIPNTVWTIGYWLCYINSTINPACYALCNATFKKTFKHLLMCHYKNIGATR
Procedure, shortened: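 Response expressed as percent activity versus the Carbachol EC100, with curves fitted by four-parameter non-linear regression of triplicates. Stable M2_CHO cells were Ca++ dye-loaded and preincubated 60 min at room temperature in assay buffer containing 20 μM ATP; signal imaged for 3 minutes after compound.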

[2] = molecular target: T2, human cloned CHRM5 receptor (M5_CHO) (Homo sapiens, UniProt P08912); assay: CHRM5 Ca++ Flux Assay (agonist mode, FDSS 7000EX); format: cell-based; details: for Emax: Percent Activity measured to EC100 of Carbachol, read-out: M5 FDSS PA; for EC50: agonist mode, geometric mean if tested more than once, read-out: M5 FDSS EC50
T2 construct: expressed in transfected cells; host or cells: CHO (M5_CHO)
T2 sequence (P08912 1-532): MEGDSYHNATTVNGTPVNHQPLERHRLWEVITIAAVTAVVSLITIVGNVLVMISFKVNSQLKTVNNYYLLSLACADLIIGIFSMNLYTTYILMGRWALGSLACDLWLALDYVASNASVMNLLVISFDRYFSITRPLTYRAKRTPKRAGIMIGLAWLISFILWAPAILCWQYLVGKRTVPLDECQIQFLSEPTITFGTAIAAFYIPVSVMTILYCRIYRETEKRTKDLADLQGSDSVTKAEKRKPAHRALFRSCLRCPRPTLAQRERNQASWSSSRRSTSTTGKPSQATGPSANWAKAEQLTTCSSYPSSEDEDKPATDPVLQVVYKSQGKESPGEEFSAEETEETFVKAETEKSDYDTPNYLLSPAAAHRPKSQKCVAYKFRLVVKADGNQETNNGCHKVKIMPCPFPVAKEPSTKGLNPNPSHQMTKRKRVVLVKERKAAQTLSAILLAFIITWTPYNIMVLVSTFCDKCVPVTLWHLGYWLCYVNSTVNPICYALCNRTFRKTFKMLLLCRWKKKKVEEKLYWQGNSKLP
Procedure, shortened: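 Agonist-mode calcium flux: 11-point dose responses, triplicate wells, fluorescence followed for 3 minutes. Cells are M3_CHO or M5_CHO lines (human receptors) with Ca++ indicator in probenecid-containing HEPES/HBSS buffer. Percent activity is referenced to carbachol EC100, and curves come from four-parameter nonlinear regression.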

SMILES | Emax [1] | EC50 [1] | Emax [2] | EC50 [2]
Fc1ccc(C2CCOC2)c(C2CCN([C@@H]3CCC4(C3)CN(c3nnco3)C4)CC2)c1 (mixture of isomers) [Example 2J, 2-((6R)-6-(4-(5-fluoro-2-(tetrahydrofuran-3-yl)phenyl)piperidin-1-yl)-2-azaspiro[3.4]octan-2-yl)-1,3,4-oxadiazole] | 37% | 36 nM | 0% | > 25000 nM
O=C(C1COC1)N1CC2(CC[C@H](N3CCC(c4ccccc4OC(F)(F)F)CC3)C2)C1 (single isomer, unassigned) [Example 8G] | 0% | – | 0% | > 25000 nM
O=C(N1CC2(CC[C@H](N3CCC(c4ccccc4C4CCOCC4)CC3)C2)C1)C1(F)CC1 (single isomer, unassigned) [Example 9M] | 0% | – | 0% | > 25000 nM
c1ccc(C2CCN([C@H]3CCC4(C3)CN(c3nnco3)C4)CC2)c(C2CCOCC2)c1 (single isomer, unassigned) [Example 10T] | 0% | – | 0% | > 25000 nM
c1ccc(C2CCN([C@@H]3CCC4(C3)CN(c3nnco3)C4)CC2)c(OC2CC3(COC3)C2)c1 [Example 1A, (R)-2-(6-(4-(2-((2-oxaspiro[3.3]heptan-6-yl)oxy)phenyl)piperidin-1-yl)-2-azaspiro[3.4]octan-2-yl)-1,3,4-oxadiazole] | 0% | – | 0% | > 25000 nM
c1ccc(C2CCN([C@@H]3CCC4(C3)CN(c3nnco3)C4)CC2)c(OC2COC2)c1 [Example 1D, (R)-2-(6-(4-(2-(oxetan-3-yloxy)phenyl)piperidin-1-yl)-2-azaspiro[3.4]octan-2-yl)-1,3,4-oxadiazole] | 40% | 35 nM | 0% | 4390 nM
c1ccc(C2CCN([C@@H]3CCC4(C3)CN(c3nnco3)C4)CC2)c(OC[C@@H]2COCCO2)c1 [Example 1E, 2-((R)-6-(4-(2-(((S)-1,4-dioxan-2-yl)methoxy)phenyl)piperidin-1-yl)-2-azaspiro[3.4]octan-2-yl)-1,3,4-oxadiazole] | 14% | 21 nM | 0% | > 25000 nM
CC(C)(O)CCOc1ccccc1C1CCN([C@@H]2CCC3(C2)CN(c2nnco2)C3)CC1 [Example 1F] | 0% | – | 0% | > 25000 nM
c1ccc(C2CCN([C@@H]3CCC4(C3)CN(c3nncs3)C4)CC2)c(OCC2COC2)c1 [Example 1G, (R)-2-(6-(4-(2-(oxetan-3-ylmethoxy)phenyl)piperidin-1-yl)-2-azaspiro[3.4]octan-2-yl)-1,3,4-thiadiazole] | 38% | 75 nM | 0% | > 25000 nM
FC1(COc2ccccc2C2CCN([C@@H]3CCC4(C3)CN(c3nncs3)C4)CC2)COC1 [Example 1H, (R)-2-(6-(4-(2-((3-fluorooxetan-3-yl)methoxy)phenyl)piperidin-1-yl)-2-azaspiro[3.4]octan-2-yl)-1,3,4-thiadiazole] | 41% | 30 nM | 10% | 2020 nM
c1ccc(C2CCN([C@@H]3CCC4(C3)CN(c3nncs3)C4)CC2)c(OCC2CCOCC2)c1 [Example 1I, (R)-2-(6-(4-(2-((tetrahydro-2H-pyran-4-yl)methoxy)phenyl)piperidin-1-yl)-2-azaspiro[3.4]octan-2-yl)-1,3,4-thiadiazole] | 28% | 92 nM | 0% | > 25000 nM
FC1(COc2ccccc2C2CCN([C@@H]3CCC4(C3)CN(c3nncs3)C4)CC2)CCOCC1 [Example 1J, (R)-2-(6-(4-(2-((4-fluorotetrahydro-2H-pyran-4-yl)methoxy)phenyl)piperidin-1-yl)-2-azaspiro[3.4]octan-2-yl)-1,3,4-thiadiazole] | 72% | 51 nM | 0% | > 25000 nM
c1ccc(C2CCN([C@@H]3CCC4(C3)CN(c3cncnc3)C4)CC2)c(OC2COC2)c1 [Example 1K, (R)-6-(4-(2-(oxetan-3-yloxy)phenyl)piperidin-1-yl)-2-(pyrimidin-5-yl)-2-azaspiro[3.4]octane] | 19% | 29 nM | 0% | > 25000 nM
c1ccc(C2CCN([C@@H]3CCC4(C3)CN(c3cncnc3)C4)CC2)c(OC2CCOCC2)c1 [Example 1L, (R)-2-(pyrimidin-5-yl)-6-(4-(2-((tetrahydro-2H-pyran-4-yl)oxy)phenyl)piperidin-1-yl)-2-azaspiro[3.4]octane] | 28% | 214 nM | 0% | > 25000 nM
c1ccc(C2CCN([C@@H]3CCC4(C3)CN(c3cncnc3)C4)CC2)c(OCC2CCOCC2)c1 [Example 1M, (R)-2-(pyrimidin-5-yl)-6-(4-(2-((tetrahydro-2H-pyran-4-yl)methoxy)phenyl)piperidin-1-yl)-2-azaspiro[3.4]octane] | 30% | 402 nM | 0% | > 25000 nM
c1ccc(C2CCN([C@@H]3CCC4(C3)CN(c3cncnc3)C4)CC2)c(OCC2COC2)c1 [Example 1N, (R)-6-(4-(2-(oxetan-3-ylmethoxy)phenyl)piperidin-1-yl)-2-(pyrimidin-5-yl)-2-azaspiro[3.4]octane] | 10% | 7 nM | 0% | > 25000 nM
c1ccc(C2CCN([C@@H]3CCC4(C3)CN(c3cncnc3)C4)CC2)c(OC2CC3(COC3)C2)c1 [Example 1O, (R)-6-(4-(2-((2-oxaspiro[3.3]heptan-6-yl)oxy)phenyl)piperidin-1-yl)-2-(pyrimidin-5-yl)-2-azaspiro[3.4]octane] | 0% | – | 0% | > 25000 nM
c1ccc(C2CCN([C@@H]3CCC4(C3)CN(c3cncnc3)C4)CC2)c(O[C@@H]2CCOC2)c1 [Example 1P, (R)-2-(pyrimidin-5-yl)-6-(4-(2-(((R)-tetrahydrofuran-3-yl)oxy)phenyl)piperidin-1-yl)-2-azaspiro[3.4]octane] | 7% | 7 nM | 0% | > 25000 nM
CC(C)(O)COc1ccccc1C1CCN([C@@H]2CCC3(C2)CN(c2nnco2)C3)CC1 [Example 2A, (R)-1-(2-(1-(2-(1,3,4-oxadiazol-2-yl)-2-azaspiro[3.4]octan-6-yl)piperidin-4-yl)phenoxy)-2-methylpropan-2-ol] | 12% | 117 nM | 0% | > 25000 nM
c1ccc(C2CCN([C@@H]3CCC4(C3)CN(c3nnco3)C4)CC2)c(O[C@@H]2CCOC2)c1 [Example 2B, 2-((R)-6-(4-(2-(((R)-tetrahydrofuran-3-yl)oxy)phenyl)piperidin-1-yl)-2-azaspiro[3.4]octan-2-yl)-1,3,4-oxadiazole] | 32% | 39 nM | 0% | > 25000 nM
COCCOc1ccccc1C1CCN([C@@H]2CCC3(C2)CN(c2nnco2)C3)CC1 [Example 2C] | 0% | – | 0% | > 25000 nM
FC1(COc2ccccc2C2CCN([C@@H]3CCC4(C3)CN(c3nnco3)C4)CC2)CCOCC1 [Example 2D, (R)-2-(6-(4-(2-((4-fluorotetrahydro-2H-pyran-4-yl)methoxy)phenyl)piperidin-1-yl)-2-azaspiro[3.4]octan-2-yl)-1,3,4-oxadiazole] | 8% | 50 nM | 0% | > 25000 nM
